# Experimental data from patent US7438926B2, “Methods for inhibiting decrease in transdermal drug flux by inhibition of pathway closure” (Alza Corporation, priority 2000, dated 2008).
# Where two headings read alike, the source gives them in different places.
# How the values were obtained:
# pathway closure [1] = assay: Inhibition of pathway closure by chemicals, methylene blue dye score after microprotrusion array pretreatment; type: in vivo, hairless guinea pigs; conditions: 24 h; for Effect on pathway closure (in words): methylene blue evaluation, Table II; for Score (methylene blue): scale 0 to 5, 0.5 or greater significant
# Procedure: Inhibition of pathway collapse by chemical agents was studied following pretreatment of the skin with a microprotrusion array and application of a formulation containing the agent for 24 h. Quantitation was performed by evaluation of dye impregnation of the pathways.
# Application of the microprotrusion array was performed with an impact applicator. […] Following application, the stretching tension was released. […] The guinea pig received a second system containing a different formulation on the opposite site. Twenty four hours after application, three systems from each group were removed and residual formulation washed from the skin. The skin was stained with a 1% methylene blue solution. Excess dye was thoroughly removed with 70% isopropyl alcohol pads and a picture of the site was taken. Pictures were scored on a 0 to 5 scale, 5 being the dye uptake obtained immediately following microprotrusion array application and 0 being the dye uptake obtained after 24 h contact with a control formulation. A score of 0.5 or greater was considered significant. Various osmotic agents, anticoagulants, antiinflammatory agents, gelling agents as well as gels of different pH and various additives were tested (Table II).
# pathway closure [2] = assay: Effect of pathway closure inhibitors on passive transdermal PPS flux (Example 3, 545 μm array); type: in vivo, hairless guinea pigs; conditions: for Effect on decrease in PPS flux between 1 and 24 h (in words): 3% citric acid trisodium salt or 50% 1,2,6-hexanetriol in PPS 0.1 mg/mL formulation; for Increase in total amount of PPS transported as compared to controls: 3% citric acid trisodium salt or 50% 1,2,6-hexanetriol
# Procedure: In this experiment, PPS was delivered by passive diffusion through pathways in the skin created by a microprotrusion array. The concentration of PPS was below the concentration required for inhibition of pathway collapse (see Table II). Therefore, at the concentration used in this experiment, PPS behaved like a drug lacking any activity on pathway closure.
# Microprotrusion array application was performed with an impact applicator. […] Following application, the stretching tension was released. […] Flux in the presence of 1,2,6-hexanetriol was decreased by less than 2 fold between 1 and 24 h. Total amount transported was increased about 4 and 7 folds in the presence of citric acid and 1,2,6-hexanetriol, respectively, as compared to controls as shown in FIG. 2.
# pathway closure [3] = conditions: PPS 0.16 mg/mL; 3% citric acid trisodium salt, 50% 1,2,6-hexanetriol or their mixture; 45 min vs 24 h
# Procedure: In all guinea pigs, the skin of one flank was manually stretched bilaterally at the time of the application of the system. Microprotrusion array application was performed with an impact applicator. […] Following application, the stretching tension was released. The adhesive ring was left adhered on the skin and the microprotrusion array was removed. […] Additional groups of HGPs were treated in the same way, except that the formulation contained 3% citric acid trisodium salt or 50% 1,2,6-hexanetriol. At 1 and 24 h after application, 3 systems from each group were removed and residual drug washed from the skin.
# (§1) Evaluation was performed at 45 min instead of 1 h. In addition, additional groups of animals received a formulation containing the mixture of 3% citric acid trisodium salt and 50% 1,2,6-hexanetriol.
# [4] = type: in vivo, hairless guinea pigs
# pathway closure [5] = conditions: guinea pig, not told
# Procedure: as §1
# An additional experiment was performed with PPS. Conditions were identical to that described in Example 4. Gluconic acid sodium salt, glucuronic acid sodium salt and glucose were evaluated at 0.6 M concentration with or without 3% citric acid.
# [6] = design: species or system hairless guinea pigs; conditions: guinea pig, in vivo
# Text: […]. […] […].
# [7] = design: species or system hairless guinea pigs; conditions: guinea pig, in vivo; remark: listed apart in the source
# Procedure: Additional experiments were performed with PPS in order to test alternative modes of delivery. […]. By comparison, with the same microprotrusion array and the same PPS concentration, total dose from a transdermal microprotrusion array with integrated drug reservoir and a pretreatment with a microprotrusion array and subsequent application of a drug reservoir was 2.2±0.2 mg and 1.4±0.2 mg, respectively. […]
# [8] = in vivo, po, cited from earlier work
# [9] = type: in vivo, hairless guinea pigs; conditions: passive, array pretreatment (545 micrometer, 72/cm^2), PPS 0.05 mg/mL, DECAD 12 mg/mL, Inulin 2.5 mg/mL
# Text: Decrease in drug flux has been studied with three model drugs presenting different charge characteristics: pentosan polysulfate (PPS), a highly negatively charged compound, DECAD, a synthetic model decapeptide bearing two positive charges at pH 5.5, and inulin, a neutral polysaccharide.
# In this experiment, PPS, DECAD, and inulin were delivered by passive diffusion through pathways in the skin created by pretreatment with a microprotrusion array. Pretreatment involves placing a microprotrusion array onto the skin with sufficient force to create a plurality of microslits/microcuts through the stratum corneum of the skin. The microprotrusion array is then removed from the skin and then some form of agent delivery device or agent reservoir is placed over the pathways in order to effect agent delivery or sampling. Pretreatment was used instead of integrated system because pathway closure appears to occur more rapidly and more reproducibly following pretreatment than when the microprotrusions are left in the skin during drug delivery. The concentration of PPS was below the concentration required for anticoagulant effect. All drugs were dissolved in water and solutions were gelled with 2% hydroxyethylcellulose. […]. PPS and DECAD were radiolabeled with tritium. […] was radiolabeled with ^14C.
# Microprotrusion array application was performed with an impact applicator. […]. […]
# pathway closure [10] = assay: India ink staining of sites after microprotrusion array pretreatment; type: in vivo, hairless guinea pigs; conditions: sites exposed to the additive for 24 h
compound,measurement,setting,value
"OCCCCC(O)CO (stereo not drawn) [1,2,6-Hexanetriol]",Effect on pathway closure (in words),pathway closure [1],most effective agents
same,Score (methylene blue),pathway closure [1]; additive concentration 11%,2.0 ± 0.3
same,Score (methylene blue),pathway closure [1]; additive concentration 23%,3.0 ± 0.5
same,Score (methylene blue),pathway closure [1]; additive concentration 50%,3.8 ± 0.2
same,Effect on decrease in PPS flux between 1 and 24 h (in words),pathway closure [2],inhibited this decrease in flux
same,Increase in total amount of PPS transported as compared to controls,pathway closure [2]; PPS 0.1 mg/mL,~7 folds
same,Decrease in PPS flux between 1 and 24 h in the presence of additive,"pathway closure [2]; PPS 0.1 mg/mL, formulation with 50% 1,2,6-hexanetriol",less than 2 fold
same,Effect on decrease in PPS flux at 24 hours (in words),pathway closure [3],inhibited significantly the decrease in flux
pentosan polysulfate [PPS],percentage excreted in urine following iv injection,"[4]; guinea pig, in vivo, iv",32%
same,Score (methylene blue),pathway closure [1]; additive concentration 0.01%,0 ± 0
same,Score (methylene blue),pathway closure [1]; additive concentration 5%,0.5 ± 0.0
same,Decrease in PPS flux between 1 hour and 24 hours,"pathway closure [2]; PPS 0.1 mg/mL, 2% HEC, no anti-healing agent",about 12 fold
same,Change of PPS flux between 1 hour and 24 hours (in words),pathway closure [5],flux decreased dramatically
same,intact fraction of dose excreted in urine,[6],more than 85%
same,total dose,[7],2.2 ± 0.2 mg
same,total dose delivered,[7],1.9 ± 0.1 mg
same,bioavailability,[8]; 300 mg,1-3%
same,fraction of dose absorbed found intact in urine,[8],less than 5%
inulin,Drug Flux,[9]; 1 h,13.9 ± 1.6 μg/(cm^2h)
same,Drug Flux,[9]; 24 h,0.489 ± 0.123 μg/(cm^2h)
same,percentage excreted in urine following iv injection,"[4]; over two days following injection, previous studies",94%
O=C(O)CC(O)(CC(=O)O)C(=O)O [citric acid],Effect on pathway closure (in words),pathway closure [1],most effective agents in preventing pathway closure
same,Effect on decrease in PPS flux between 1 and 24 h (in words),pathway closure [2],inhibited this decrease in flux
same,Increase in total amount of PPS transported as compared to controls,pathway closure [2]; PPS 0.1 mg/mL,about 4 folds
same,Effect on decrease in PPS flux at 24 hours (in words),pathway closure [3],inhibited significantly the decrease in flux
same,Pathways open for larger sized compounds (India ink staining),pathway closure [10],pathways were open for larger sized compounds
OCC(O)CO [Glycerin],Score (methylene blue),pathway closure [1]; additive concentration 30%,2.7 ± 0.2
same,Score (methylene blue),pathway closure [1]; additive concentration 50%,3.0 ± 0.2
same,Score (methylene blue),pathway closure [1]; additive concentration 70%,2.7 ± 0.3
same,Pathways open for larger sized compounds (India ink staining),pathway closure [10],pathways were open for larger sized compounds
